The values that follow come from ChEMBL document CHEMBL5226301, “Toward Raman Subcellular Imaging of Endothelial Dysfunction” (J Med Chem, 2021).

Usually pKa stands for the pH at which an ionisable group is half protonated. Low values mean a group that gives up its proton readily, high ones a group that holds its proton tightly.

The nature of the data set: Dissociation constant, pKa of compound. It counts as physicochemical.
With `Nc1ccc(C#CC#Cc2ccc(O)cc2)cc1`, the pKa amounted to 2.8. Under `O=S(=O)(Nc1ccc(C#CC#Cc2ccccc2)cc1)C(F)(F)F` stands 4.1; under `Nc1ccc(C#CC#Cc2ccccc2)cc1`, 2.7; under `Nc1ccc(C#CC#Cc2ccccc2)c(O)c1`, 2.7.

In turn, `C(C#Cc1c[nH]cn1)#Cc1ccccc1` yielded a pKa of 4.

In the case of `Oc1ccc(C#CC#Cc2ccccc2)cc1`, the pKa was 9.5. Under `Oc1ccc(C#CC#Cc2ccccc2)cc1F` stands 7.9; under `Oc1c(F)cc(C#CC#Cc2ccccc2)cc1F`, 6.2.

On to `Nc1cccc(C#CC#Cc2ccccc2)c1`, for which the pKa amounted to 3.5. Under `Oc1ccc(C#CC#Cc2ccccc2)c(F)c1` stands 8.5; under `C(C#Cc1ccncc1)#Cc1ccccc1`, 3.3. Under `Nc1cc(C#CC#Cc2ccccc2)ccn1` stands 5.
